In patent publication US20230086702A1, “SUBSTITUTED 2-AMINO-PYRAZOLYL-[1,2,4]TRIAZOLO[1,5A]PYRIDINE DERIVATIVES AND USE THEREOF” (The Johns Hopkins University, priority 2019, published 2023) one finds IC50 data, which are given here for ten compounds.

SMILES strings stand for the structures. pIC50: −log10 of the molar value.

The target of one assay is T1, DLK (Homo sapiens, UniProt Q12852).
T1 construct: 10 nM DLK, catalytic domain, Carna Biosiences; purchased Carna Biosciences ('Carna Biosiences' [sic])
T1 sequence (Q12852 125-366 limits assumed): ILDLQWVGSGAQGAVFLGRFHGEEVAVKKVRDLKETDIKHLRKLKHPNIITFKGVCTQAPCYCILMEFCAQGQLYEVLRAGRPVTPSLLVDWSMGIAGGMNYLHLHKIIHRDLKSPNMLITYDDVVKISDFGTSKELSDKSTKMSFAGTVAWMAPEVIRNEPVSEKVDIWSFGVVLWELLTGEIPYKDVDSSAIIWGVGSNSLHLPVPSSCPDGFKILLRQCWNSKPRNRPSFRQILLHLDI
In words: DLK biochemical assay (TR-FRET, MKK7 phosphorylation). On the procedure: (§1) DLK assay is a biochemical assay format designed to screen for inhibitors of DLK. Enzymatic activity of DLK is measured by monitoring phosphorylation of the physiological substrate MKK7 (MAP2K7, Dual specificity mitogen-activated protein kinase kinase 7). Phosphorylation is detected by a TR-FRET system whereby His-tagged MKK7 is labeled by a XL665-labeled anti-His antibody (FRET acceptor, emission 665 nm). DLK phosphorylates MKK7 at T275/S277, which is detected by an Eu-labeled anti-phospho-MKK7 (T275/S277) antibody (FRET donor, excitation 340 nm). Phosphorylation of MKK7 results in an increased TR-FRET signal (Ratio XL665-channel/Eu-channel) and inhibition of enzymatic activity of DLK decreases the TR-FRET signal.
Assay Protocol for 1536 MTP format: test compounds are predispensed (60 nl) in test plates; +3 μl DLK solution (10 nM DLK, catalytic domain, Carna Biosiences, 0.6 mM DTT in assay buffer); +2 μl substrate solution (15 nM MKK7, LDB; 60 μM ATP; 0.4 mM DTT in assay buffer); 90 min incubation at RT; +2 μl detection mix (5 nM XL665-labeled anti-His antibody, Cisbio; 0.1 nM Eu-labeled anti-phospho-MKK7 (T275/S277), Cisbio/Millipore in detection buffer); 16 h incubation at 37° C.; endpoint measurement BMG (HTRF).
Assay Protocol for 384 low volume MTP format: 1 μl of test compounds is pipetted into test plate; +5 μl DLK solution (10 nM DLK, catalytic domain, Carna Biosiences in assay buffer); +5 μl substrate solution (15 nM MKK7, LDB; 60 μM ATP, in assay buffer); 90 min incubation at RT; +9 μl detection mix (20 nM XL665-labeled anti-His antibody, Cisbio; 0.4 nM Eu-labeled anti-phospho-MKK7 (T275/S277), Cisbio/Millipore in detection buffer); 16 h incubation at 4° C.; endpoint measurement BMG (HTRF).
(§2) All indicated concentrations final concentrations.
(§3) Assay buffer (384 format): 50 mM Hepes pH 7.5, 10 mM MgCl2, 1 mM EGTA, 1 mM DTT, 0.01% Triton X-100, 0.01% BSA, 1:500 Smart Block.
(§4) Detection buffer: 25 mM Tris/HCl pH 7.5, 100 mM EDTA, 100 mM NaCl, 200 mM KF, 0.01% Tween 20, 1:500 Smart Block.
A general note: In TR-FRET formats the signal depends on donor and acceptor labels being close together.

For the next assay, the target named is T2, LZK (Homo sapiens, UniProt O43283).
T2 construct: 10 nM LZK, catalytic domain, Carna Biosiences in assay buffer; purchased Carna Biosciences ('Carna Biosiences' [sic])
T2 sequence (O43283 168-409 limits assumed): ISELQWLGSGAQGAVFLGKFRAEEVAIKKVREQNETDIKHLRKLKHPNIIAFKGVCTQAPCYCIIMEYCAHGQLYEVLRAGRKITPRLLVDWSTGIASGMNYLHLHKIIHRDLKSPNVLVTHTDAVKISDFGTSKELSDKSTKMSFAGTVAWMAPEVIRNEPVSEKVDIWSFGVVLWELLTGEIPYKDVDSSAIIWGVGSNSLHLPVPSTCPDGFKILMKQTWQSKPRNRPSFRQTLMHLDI
In words: LZK biochemical assay (TR-FRET, MKK7 phosphorylation). The protocol: as §1, with “LZK” for “DLK”, “LZK.” for “DLK.”, “T275/S277” for “T275/S277,”
Assay Protocol for 384 low volume MTP format: 1 μl of test compound is pipetted into test plate; +5 μl LZK solution (10 nM LZK, catalytic domain, Carna Biosiences in assay buffer); +5 μl substrate solution (15 nM MKK7, LDB; 15 μM ATP, in assay buffer); 90 min incubation at RT; +5 μl detection mix (20 nM XL665-labeled anti-His antibody, Cisbio; 0.4 nM Eu-labeled anti-phospho-MKK7 (T275/S277), Cisbio/Millipore in detection buffer); 16 h incubation at 32° C.; endpoint measurement BMG (HTRF).
as §2, §3, §4

What is called pIC50 is the IC50 on a negative log10 scale, so that one unit is a factor of ten. A high value points to a low IC50. On to `CCS(=O)(=O)c1cccc(-c2cc(-c3cnn(C(c4ccc(C(F)(F)F)nc4)C4CCOCC4)c3)cn3nc(N)nc23)c1` (racemic) [II-16, 8-[3-(Ethylsulfonyl)phenyl]-6-(1-{tetrahydro-2H-pyran-4-yl[6-(trifluoromethyl)pyridin-3-yl]methyl}-1H-pyrazol-4-yl)[1,2,4]triazolo[1,5-a]pyridin-2-amine], for which the pIC50 was 8.96 against DLK and 8.46 against LZK.

`CCC(c1ccc(C(F)F)nc1)n1cc(-c2cc(-c3ccc(C4CC4)nc3)n3nc(N)nc3c2)cn1` (racemic) [II-67, 5-(6-Cyclopropylpyridin-3-yl)-7-(1-{1-[6-(difluoromethyl)pyridin-3-yl]propyl}-1H-pyrazol-4-yl)[1,2,4]triazolo[1,5-a]pyridin-2-amine]: the pIC50 is 7.92 at DLK and 7.82 at LZK.

Take `CC(C)C(c1ccc(C(F)(F)F)nc1)n1cc(-c2cc(-c3ccc(C4CC4)nc3)n3nc(N)nc3c2)cn1` (single isomer, unassigned) [II-59, 5-(6-Cyclopropylpyridin-3-yl)-7-(1-{2-methyl-1-[6-(trifluoromethyl)pyridin-3-yl]propyl}-1H-pyrazol-4-yl)[1,2,4]triazolo[1,5-a]pyridin-2-amine]: the pIC50 was 7.04 at DLK and 6.72 against LZK.

Take `CCC(c1ccc(C(F)(F)F)nc1)n1cc(-c2cc(-c3cnn(CC(F)F)c3)c3nc(N)nn3c2)cn1` (single isomer, unassigned) [II-109, 8-[1-(2,2-Difluoroethyl)-1H-pyrazol-4-yl]-6-(1-{1-[6-(trifluoromethyl)pyridin-3-yl]propyl}-1H-pyrazol-4-yl)[1,2,4]triazolo[1,5-a]pyridin-2-amine]: the results for the pIC50 on DLK and against LZK were 7.80 and 7.24, respectively.

With `Nc1nc2c(-c3cn(CC(F)(F)F)c(=O)cn3)cc(-c3cnn(C(c4ccc(C(F)(F)F)nc4)C4CCOCC4)c3)cn2n1` (single isomer, unassigned) [II-167, 5-[2-Amino-6-(1-{tetrahydro-2H-pyran-4-yl[6-(trifluoromethyl)pyridin-3-yl]methyl}-1H-pyrazol-4-yl)[1,2,4]triazolo[1,5-a]pyridin-8-yl]-1-(2,2,2-trifluoroethyl)pyrazin-2(1H)-one], the pIC50 was 8.89 against DLK and 8.00 at LZK.

For the compound `CCC(c1ccc(C(F)F)nc1)n1cc(-c2cc(-c3cnn(CC(F)(F)F)c3)c3nc(N)nn3c2)cn1` (single isomer, unassigned) [II-106, 6-(1-{1-[6-(Difluoromethyl)pyridin-3-yl]propyl}-1H-pyrazol-4-yl)-8-[1-(2,2,2-trifluoroethyl)-1H-pyrazol-4-yl][1,2,4]triazolo[1,5-a]pyridin-2-amine], the pIC50 against DLK was 7.40; against LZK, 7.33.

For the compound `CC[C@@H](c1ccc(F)cc1)n1cc(-c2cc(-c3cnn(CC(F)(F)F)c3)c3nc(N)nn3c2)cn1` [II-98, 6-{1-[(1S)-1-(4-fluorophenyl)propyl]-1H-pyrazol-4-yl}-8-[1-(2,2,2-trifluoroethyl)-1H-pyrazol-4-yl][1,2,4]triazolo[1,5-a]pyridin-2-amine], the negative logarithm of the IC50 (pIC50) at DLK was 7.85; at LZK, 7.25.

Regarding `Nc1nc2cc(-c3cnn(C(c4ccc(C(F)(F)F)nc4)C4CCOCC4)c3)cc(-c3ccc(=O)n(C(F)F)c3)n2n1` (centres unmarked) [II-182], the pIC50 was 8.40 against DLK and 8.19 at LZK.

For `Nc1nc2cc(-c3cnn(C(c4ccc(C(F)(F)F)nc4)C4CCOCC4)c3)cc(-c3ccnc(C(F)(F)F)c3)n2n1` (racemic) [II-34, 7-(1-{Tetrahydro-2H-pyran-4-yl[6-(trifluoromethyl)pyridin-3-yl]methyl}-1H-pyrazol-4-yl)-5-[2-(trifluoromethyl)pyridin-4-yl][1,2,4]triazolo[1,5-a]pyridin-2-amine], the results for the pIC50 on DLK and against LZK were 7.82 and 8.15, respectively.

Take `Nc1nc2cc(-c3cnn(Cc4ccccc4)c3)cc(-c3cnc(C4CC4)nc3)n2n1` [II-84, 7-(1-Benzyl-1H-pyrazol-4-yl)-5-(2-cyclopropylpyrimidin-5-yl)[1,2,4]triazolo[1,5-a]pyridin-2-amine]: the negative logarithm of the IC50 (pIC50) at DLK was 7.26; at LZK it was 6.54.
